The values below come from PubChem BioAssay (NCI).

Assay in all cases: growth of human tumour cells (NCI), 48 h
The test system of test [1] is OVCAR-3 ovarian.
Test [2] has as its system NCI-H226 lung.
For test [3], the system named is IGROV1 ovarian.
Test [4] concerns ACHN renal.
Test [5] concerns BT-549 breast.
Test [6] has as its system SK-MEL-28 melanoma.
The subject of test [7] is MDA-N.
Test [8] relates to MDA-MB-231 breast.
The subject of test [9] is RXF 393 renal.

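Cultured in 96-well plates, cells were exposed to test compound for 48 hours across five concentrations. At the TGI there is no net growth.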 Bounds are passed on as bounds.

As to `Cc1nc(C)c(N2CCN(CN)CC2)c(=O)[nH]1`, the TGI in test [1], in [2], in test [3], in test [4], in [5] and in [6] was more than 100 µM throughout. For the same compound, the TGI in [7], in test [8] and in [9] was more than 100 µM in each case.

`Oc1cccc2c(Br)ccnc12`: the TGI in test [1] is 7.81 µM; in [2] it was 29.8 µM; in test [3] it was 9.41 µM; in test [4] it was 27.5 µM; in [5], more than 45.7 µM; in test [6], 38.3 µM. Moreover, the TGI in test [7] was more than 50.4 µM; in test [8] it was 16.3 µM; in [9], 32.4 µM.

Regarding `S=C1C(=Nc2ccccc2)N(c2ccccc2)/C(=N\c2cccc[n+]2Cc2ccccc2)N1c1ccccc1`, the TGI in [1] stood at 54.3 µM; in test [2], 40.4 µM; in [3], 54.9 µM; in test [4] it was 45 µM; in test [5], 27.4 µM; in test [6], 37.3 µM. For the same compound, the TGI worked out at 25 µM in [7], 31.3 µM in [8] and 27.3 µM in [9].

As for `CC(C)[C@H](C)/C=C/[C@@H](C)C1CC[C@H]2[C@@]34C=C[C@]5(C[C@@H](O)CC[C@]5(C)[C@H]3CC[C@]12C)OO4` (some centres not stated), the TGI in [1] was more than 100 µM; in [2], 49.9 µM; in [3], more than 100 µM; in test [4], more than 100 µM; in test [5] it was 92.7 µM; in test [6], more than 100 µM. In addition, the values for the TGI in [7], in [8] and in test [9] were more than 100 µM, 84.9 µM and more than 100 µM, respectively.

With `O=c1cc(-c2ccccc2)oc2c1ccc1[nH]c3ccccc3c(=O)c12`, the TGI in test [1], in [2], in [3], in [4], in [5] and in test [6] was more than 100 µM throughout. Further, the TGI in test [7], in test [8] and in [9] was more than 100 µM each time.

Take `c1ccc2c[n+](CCCC[n+]3ccc4ccccc4c3)ccc2c1`: the TGI in [1], in test [2], in test [3], in [4], in [5] and in [6] was more than 100 µM each time. Also, the TGI in test [7], in test [8] and in test [9] was more than 100 µM each time.

In the case of `Cc1cc(N2CCCCC2)nc2ccc(Cc3ccc4nc(N5CCCCC5)cc(C)c4c3)cc12`, the TGI in test [1], in test [2], in test [3], in test [4], in [5] and in test [6] was more than 100 µM throughout. Also, the TGI in test [7], in [8] and in test [9] was more than 100 µM in each case.

As to `C/C(=N\Nc1nc2ccccc2[nH]1)c1ncccn1`, the TGI was 6.7 µM in test [1]; 9.41 µM in test [3]; 0.201 µM in test [4]; more than 100 µM in test [5]; more than 100 µM in test [7]; more than 29.2 µM in test [8]. The TGI in [9] is more than 32.5 µM.

Consider `O=C1C=CC(=O)c2c(O)c(N3CCOCC3)c(Cl)c(O)c21`, for which the TGI in [1] came out at 1.31 µM; in test [2], 3.34 µM; in test [3], 1.21 µM; in test [4] it was 0.739 µM; in [5] it was 0.329 µM; in test [6], 0.786 µM. Besides, the figures for the TGI in test [7], in [8] and in [9] were 0.396 µM, 0.612 µM and 0.464 µM, respectively.

As to `COC(=O)[C@@H](NS(=O)(=O)CC12CCC(CC1)C2(C)C)C(C)(C)C`, the TGI in test [1], in [2], in [3], in [4], in test [5] and in test [6] was more than 100 µM throughout. Also, the TGI in [7], in test [8] and in test [9] was more than 100 µM each time.

On to `CCOc1ccc2nc3nc(=O)[nH]c(C)c3c(NC(C)(CO)CO)c2c1`, for which the TGI in test [1], in [2], in test [3], in test [4], in [5] and in test [6] was more than 100 µM each time. Further, the TGI in [7], in [8] and in [9] was more than 100 µM each time.

Take `O=CC(O)C(O)C(O)C(O)COC(=O)NCCCCC(=O)C(F)(F)C(F)(F)C(F)(F)C(F)(F)C(F)(F)C(F)(F)C(F)(F)F` (configuration not stated): the TGI in test [1] is more than 100 µM; in test [3] it was more than 100 µM; in test [4], more than 100 µM; in [5] it was 33.9 µM; in test [6], more than 100 µM; in test [7], 73.5 µM. Besides, the TGI came out at 47.6 µM in [8] and 62.4 µM in [9].

Take `Cn1c2ccc(Cl)cc2c2ccc3c(c21)C(=O)C=CC3=O`: the TGI in [1], in test [2], in test [3], in [4], in [5] and in test [6] was more than 10 µM throughout. For the same compound, the TGI in test [7] and in test [8] was more than 10 µM throughout.

Take `Cc1ccc(S(=O)(=O)OCCC2CN(C(=O)OCc3ccccc3)C(C)(C)O2)cc1` (configuration not stated): the TGI was more than 100 µM in test [1]; 4.35 µM in [2]; more than 100 µM in test [3]; 64.9 µM in test [4]; 5.97 µM in test [5]; 82.1 µM in test [6]. The TGI in [7], in test [8] and in test [9] was more than 100 µM throughout.
